Values of other authors as cited in patent US7834030B2, “Phenyl-[1,2,4]-oxadiazol-5-one derivatives, pharmaceutical compositions and therapeutic use thereof” (Sanofi-Aventis, priority 2005, dated 2010).
Like-named read-outs stand apart in the source and are kept apart here.

Columns and labels:
[1] = healthy volunteers, two weeks clinical trials; cited from earlier work
[2] = cynomolgus monkeys; cited from earlier work
[3] = rhesus monkeys; cited from earlier work
[4] = diabetic animal model; cited from earlier work
[5] = obese, insulin resistant rhesus monkeys; cited from earlier work

In the case of `CCCc1c(OCCCSc2nnc(SCC(=O)O)s2)ccc(C(C)=O)c1O` [YM-16638], the plasma lipids [1] is given as “acts in a similar manner”, the plasma lipids [2] is given as “significantly lowers” and the plasma lipids [3] is given as “significantly lowers”.
In the case of `CCCc1c(OCCCOc2ccc(OCC(=O)O)cc2)ccc(C(C)=O)c1O` [Example L-165041], the plasma cholesterol [4] is listed as “raises plasma cholesterol”.
For `Cc1cc(SCc2sc(-c3ccc(C(F)(F)F)cc3)nc2C)ccc1OCC(=O)O` [GW501516], the HDL-cholesterol [5] is given as “raises”, the insulin levels [5] is given as “decreases” and the “plasma LDL-cholesterol” value [5] is given as “decreases”. The triglycerides [5] was “decreases”.
